In one assay the test system is caspase 3/7. The experiment in a line: Inhibition of activation of caspase 3/7 in camptothecin cell model of apoptosis. Format: cell-based, human. The conditions noted are these: Homo sapiens, 50 μM CPT 6 hours, read-out: inhibition of caspase 3/7 with respect to camptothecin. The protocol:
The assay was performed on human neuroblastoma SK-N-MC cells in culture, maintained as described in section 2.1.
The induction of apoptosis on the cells in culture was performed with camptothecin (CPT), which triggers the activation of cell apoptosis. Apoptosis was quantified by means of the measurement of the activation of effector caspases, caspase 3 or caspase 7, for which a kit for the fluorometric detection of active caspase 3/7 (Apo-ONE® Homogeneous Caspase-3/7, Promega) was used. Active caspases 3 or 7 of the cells cause the rupture of a substrate, which leads to fluorescence emission, which is read by means of a fluorometer. The effect of the pretreatment of compound NST0060 at 10 and 40 μM on the activation of caspase 3/7 produced by 50 μM of camptothecin (CPT) in the SK-N-MC cells was thus analyzed. These cells, not exceeding 15 passages, were seeded on 96-well plates treated for adherent cells with a cell concentration of 5×10^4 cells/well; 3 wells of the plate were seeded for each assay condition.
After 24 hours of cell incubation (at 37° C. and 5% CO2), the pretreatment with NST0060 at 10 and 40 μM was performed.
The cells were incubated (at 37° C. and 5% CO2) with these treatments for 6 hours, after which cell lysis buffer and the caspase substrate at the concentrations specified by the manufacturer were added; it was incubated at room temperature for 30 minutes and then frozen at −20° C. overnight. Fluorescence was measured the next day (499/521 nm, Exci/Emi).

In another assay the test system is FVB/NHan mice. In words: Death caused by acute administration of kainate in mice, survival. Format: in vivo. The conditions noted are these: 50 mg/kg i.p. at 24 and 0.5 hours before KA 25 mg/kg and daily up to 7 days; p<0.05. The procedure: All the animals included during the experimental process were 12-week old males from the FVB/NHan strain. The experiments were carried out strictly complying with the standard entitled Guidance on the Operation of Animals (Scientific Procedures, Act. 1986). The animals were subjected to their respective quarantine period and were treated with maximum precaution to minimize possible contaminations during inoculations and handling.
The animals were intraperitoneally inoculated with 25 mg/kg of kainate (KA) dissolved in PBS. Fourteen animals were pretreated at 24 and 0.5 hours before inoculation with KA and subsequently on a daily basis up to 7 days post-inoculation by means of intraperitoneal injection with 0.25% methyl cellulose in PBS as a vehicle (vehicle+KA administration regimen) and 14 were pretreated at 24 and 0.5 hours before inoculation with KA and subsequently on a daily basis up to 7 days post-inoculation by means of intraperitoneal injection with compound NST0060 at a dose of 50 mg/kg (NST0060+KA administration regimen). After inoculation, the animals were individually housed in trays to monitor them.

Assay [1] concerns human hepatocarcinoma line HepG2. In words: Intracellular total cholesterol levels in human hepatic cell line. Format: cell-based. To be noted: HepG2, active form, 20 hours in the absence of FBS. The protocol: To that end an assay was conducted which had the purpose of determining if compound NST0060 in its active form was capable of modifying total cholesterol levels in the human hepatocarcinoma line HepG2. […] To carry out this assay, the compounds were prepared at 10 mM in ultrapure water and were activated by means of 0.1 N NaOH for 12 hours at 4° C. The compounds were stored at −20° C. until they were used.
The HepG2 line was obtained from the American Type Culture Collection (ATCC). The cells maintained in passage were seeded in 96-well plates (4×10^4 cells/well) in MEM supplemented with 10% FBS, 2 mM L-glutamine, 1 mM sodium pyruvate, 0.1 mM non-essential amino acids and 0.05 mg/mL gentamicin. After 24 hours of the seeding, the cells were deprived of FBS for 8 hours. The cells were then incubated with the treatments at various concentrations for 20 hours. After the incubation period, the cells were washed with PBS and lysed with a phosphate buffer with 0.5% Triton X-100. The lysis was completed by means of a double freezing-thawing.
The total cholesterol was quantified by means of enzymatic and fluorometric techniques. […] The fluorescence intensity was determined at 530 nm of excitation and 580 nm of emission by means of a fluorometer. The results were standardized by amount of protein, which was determined by means of the BCA technique.

For another assay, the system named is TNFα. In words: LPS model of systemic inflammation in mice, plasma TNFα, NST0060 compared with simvastatin. The class given is in vivo. The conditions noted are these: two i.p. doses of 50 mg/kg (lactone forms); 2 hours after LPS 8 mg/kg i.p. An excerpt:
The investigators considered necessary to evaluate alternative activities with respect to hypocholesterolemic and neuroprotective activities given the characteristics and properties of the molecule. […] To evaluate this activity, a model of systemic shock in mice induced by lipopolysaccharide (LPS), a component of the gram negative bacteria structure that induces a cytokine-mediated, mainly TNFα-mediated, inflammatory response was used.
All the animals included during the experimental process were 12-week old male C57BL6 mice. The experiments were carried out strictly complying with the standard entitled Guidance on the Operation of Animals (Scientific Procedures, Act. 1986). The animals were subjected to their respective quarantine period and were treated with maximum precaution to minimize possible contaminations during treatments and handling.
In both cases 0.5% methyl cellulose in physiological saline, which was administered to mice in the control group with the same administration regimen, was used as a vehicle. Peripheral systemic inflammation was induced one hour after the last treatment by means of a single i.p. injection of LPS at 8 mg/kg. Two hours later blood was taken and plasma was obtained, which was used to evaluate the anti-inflammatory effect by analyzing plasma concentrations of TNFα by means of ELISA.

`CCCC(CCC)C(=O)O[C@H]1C[C@@H](C)C=C2C=C[C@H](C)[C@H](CC[C@@H]3C[C@@H](O)CC(=O)O3)[C@H]21` [NST0060, 2-propylpentanoic acid (1S,3R,7S,8S,8aR)-1,2,3,7,8,8a-hexahydro-3,7-dimethyl-8-[2-[(2R,4R)-tetrahydro-4-hydroxy-6-oxo-2H-pyran-2-yl]ethyl]-1-naphthalenyl ester]: the inhibition at 10 µM with caspase 3/7 (pretreatment 24 h at 10 μM) was 58%. The inhibition at 40 µM in the assay with caspase 3/7 (pretreatment 24 h at 40 μM) was 32%. Moreover, the “mortality caused by KA” value in the assay on FVB/NHan mice is “reduces mortality observed in a statistically significant manner”. Also, the “reduction in total cholesterol in the cells” value in assay [1] is listed as “reductions in total cholesterol in the cells similar to those exerted by simvastatin”. In the assay with TNFα, the “TNFα plasma levels with respect to the control group” value was “large decrease in said levels that is significant with respect to the control group” and the “TNFα plasma levels with respect to the simvastatin group” value is recorded as “statistically significant TNFα plasma level reductions with respect to the group of simvastatin”.

Values taken from patent US20130197073A1, “HYPOCHOLESTEROLEMIC, ANTI-INFLAMMATORY AND ANTIEPILEPTIC NEUROPROTECTIVE COMPOUND” (NEURON BIOPHARMA, S.A., priority 2010, published 2013).
